Experimental data taken from article PMC8138958 (ACS infectious diseases, 2021).
Values after ≈ are worked out from the molar mass of the structure shown. Where two headings read alike, the source gives them in different places. Marks after values point to notes of the source that are not given here. Where a SMILES comes first, the peptide text is derived from it. Bridges are numbered along the chain shown (N, C = ends). [ ]: non-standard residue; d: D form. The star is where a group is joined. X2 = NC[C@@H](CC(=O)*)c1cccc(Cl)c1; Dab = NCC[C@H](N)C(=O)O; Dap = NC[C@H](N)C(=O)O

What was measured:
E.coli ATCC 25922 = assay type: cell-based, Escherichia coli; details: compound alone; polymyxin-susceptible strain
K.pneumonia ATCC 13882 = assay type: cell-based, Klebsiella pneumoniae; details: compound alone; polymyxin-susceptible strain
P.aeruginosa ATCC 27853 = assay type: cell-based, Pseudomonas aeruginosa; details: compound alone; polymyxin-susceptible strain
A.baumannii NCTC 13301 = assay type: cell-based, Acinetobacter baumannii; details: compound alone, polymyxin-susceptible strain
A.baumannii BAA-747 = assay type: cell-based, Acinetobacter baumannii; details: compound alone; polymyxin-susceptible strain
E.coli IHMA940398 = assay type: cell-based, Escherichia coli; details: compound alone; reduced susceptibility to polymyxins
E. coli IHMA558090 = assay type: cell-based, Escherichia coli; details: compound alone; reduced susceptibility to polymyxins
K. pneumoniae IHMA580884 = assay type: cell-based, Klebsiella pneumoniae; details: compound alone; reduced susceptibility to polymyxins
K.pneumoniae IHMA520329 = assay type: cell-based, Klebsiella pneumoniae; details: compound alone; reduced susceptibility to polymyxins
P.aeruginosa IHMA644636 = assay type: cell-based, Pseudomonas aeruginosa; details: compound alone; reduced susceptibility to polymyxins
P.aeruginosa IHMA517175 = assay type: cell-based, Pseudomonas aeruginosa; details: compound alone; reduced susceptibility to polymyxins
A.baumannii IHMA 517303 = assay type: cell-based, Acinetobacter baumannii; details: compound alone; reduced susceptibility to polymyxins
[1] = Determination of kidney drug levels; assay type: in vivo; details: mouse, single 17.2 mg/kg subcutaneous dose, period 4-16 hr
[2] = mouse; cited from earlier work
[3] = Cynomolgus monkey; cited from earlier work
K.pneumoniae IHMA652780 = assay: MIC by broth microdilution; assay type: cell-based, Klebsiella pneumoniae; details: compound alone; reduced susceptibility to polymyxins
A.baumannii IHMA 851735 = assay: MIC by broth microdilution; assay type: cell-based, Acinetobacter baumannii; details: compound alone; reduced susceptibility to polymyxins
A. baumannii NCTC13301 = assay: Neutropenic mouse thigh efficacy model; assay type: in vivo, Acinetobacter baumannii; details: same conditions (20mg/kg)
[4] = In vivo nephrotoxicity, kidney histopathology and urinary biomarkers; set-up: species or system male CD-1 mice
[5] = Plasma exposure in the renal toxicity study; assay type: in vivo; details: mouse, 25 mg/kg dose level

Compound | MIC E.coli ATCC 25922 (E.coli ATCC 25922) [µg/mL] | MIC K.pneumonia ATCC 13882 (K.pneumonia ATCC 13882) [µg/mL] | MIC P.aeruginosa ATCC 27853 (P.aeruginosa ATCC 27853) [µg/mL] | MIC A.baumannii NCTC 13301 (A.baumannii NCTC 13301) [µg/mL] | MIC A.baumannii BAA-747 (A.baumannii BAA-747) [µg/mL] | MIC E.coli IHMA940398 (E.coli IHMA940398) [µg/mL] | MIC E. coli IHMA558090 (E. coli IHMA558090) [µg/mL] | MIC K. pneumoniae IHMA580884 (K. pneumoniae IHMA580884) [µg/mL] | MIC K.pneumoniae IHMA520329 (K.pneumoniae IHMA520329) [µg/mL] | MIC P.aeruginosa IHMA644636 (P.aeruginosa IHMA644636) [µg/mL] | MIC P.aeruginosa IHMA517175 (P.aeruginosa IHMA517175) [µg/mL] | MIC A.baumannii IHMA 517303 (A.baumannii IHMA 517303) [µg/mL] | further results
CC(C)C[C@@H]1NC(=O)[C@@H](Cc2ccccc2)NC(=O)[C@H](CCN)NC(=O)[C@@H](NC(=O)[C@H](CN)NC(=O)[C@@H](NC(=O)C[C@H](CN)c2cccc(Cl)c2)[C@@H](C)O)CCNC(=O)[C@H]([C@@H](C)O)NC(=O)[C@H](CCN)NC(=O)[C@H](CCN)NC1=O [Compound 26, SPR206] (X2-T[Dap][Dab][Dab][dF]L[Dab][Dab]T; lactam 3-C (inferred)) | 0.125 (≈ 0.109 µM) | 0.125 (≈ 0.109 µM) | 0.25 (≈ 0.218 µM) | 0.06 (≈ 0.0524 µM) | 0.125 (≈ 0.109 µM) | 32 (≈ 28 µM) | 8 (≈ 6.99 µM) | 16 (≈ 14 µM) | 64 (≈ 55.9 µM) | 32 (≈ 28 µM) | 8 (≈ 6.99 µM) | >64 | AUC in renal tissue [1]: 850 µg·h/g; renal toxicity compared to PMB [2]: significantly reduced renal toxicity compared to PMB; renal toxicity compared to PMB [3]: significantly reduced renal toxicity compared to PMB
Colistin [2 (Colistin)] | 0.25 | 0.25 | 1 | 0.5 | 0.25 | 16 | 4 | 16 | >64 | 32 | 64 | >64 | 
Polymyxin B [1 (PMB)] | 0.25 | 0.25 | 0.5 | 0.25 | 0.25 | 16 | 4 | 8 | 64 | 32 | 8 | >64 | MIC A.baumannii NCTC 13301 (A.baumannii NCTC 13301; listed as PMB): 0.25 µg/mL; MIC K.pneumoniae IHMA652780 (K.pneumoniae IHMA652780): 4 µg/mL; MIC A.baumannii IHMA 851735 (A.baumannii IHMA 851735): 4 µg/mL; drop in colony forming units (CFU) from the pre-treatment level (A. baumannii NCTC13301): greater than 2 log10; Histopathology score – number of animals Normal ([4]; 12.5 mg/kg, 24hr, n = 5): 5; Histopathology score – number of animals Minimal ([4]; 12.5 mg/kg, 4 days, n = 5): 1; Histopathology score – number of animals Normal ([4]; 12.5 mg/kg, 4 days, n = 5): 4; Histopathology score – number of animals Mild ([4]; 25 mg/kg, 24hr, n = 5): 2; Histopathology score – number of animals Minimal ([4]; 25 mg/kg, 24hr, n = 5): 2; Histopathology score – number of animals Moderate ([4]; 25 mg/kg, 24hr, n = 5): 1 ^*; Histopathology score – number of animals Minimal ([4]; 25 mg/kg, 4 days, n = 5): 2; kidney histopathology ([4]; mouse, 25 mg/kg sc three times per day, 24 hr and 4 day studies): significant histopathology changes in the kidneys; plasma AUCinf [5]: 57 µg·h/mL
